US20050288280A1, “Meloxicam in veterinary medicine” (Boehringer Ingelheim Vetmedica GmbH, priority 2004, published 2005)

Experiments:
[1] = system: dairy cows with clinical mild or moderate mastitis; assay: Clinical field study: response thresholds to mechanical stimuli (hypersensitivity) in dairy cows with clinical mastitis; type: in vivo; conditions: adjunct to intramammary cefquinome, hind limbs, 6-8 examinations over 45 days, meloxicam groups vs antibiotics alone P<0.001
Protocol: Therefore, as already mentioned, dairy cows were studied to assess pain associated with moderate or mild mastitis. Based on the abovementioned study directed to the newly established method for the measurement of pain in food producing animals, a clinical field study was used to investigate, besides painful chronic conditions in cows with mild and moderate mastitis, the analgesic efficacy and long duration of action of meloxicam. In such clinical field study, meloxicam was administered only once as adjunct to intramammary antibiotic therapy and was compared to a second group where animals received re-treatments with meloxicam after 3 and 6 days. A third group received the antibiotic stand alone therapy. The distance between the hocks was measured as a proxy indicator of altered cow stance. Response thresholds to mechanical stimuli were measured on each hind limb using a modification of the method described by Nolan and others (A. Nolan, A. Livingston, R. Morris, and A. Waterman, Techniques for comparison of thermal and mechanical nociceptive stimuli in the sheep, J. Pharmacol. Methods 1987, 17, pp. 39-49). […] Response thresholds to mechanical stimuli were measured on each hind limb. […]

dairy cows = conditions: administered intramammarily in dairy cows; cited from earlier work

Row | SMILES | threshold responses to mechanical stimuli (mechanical hyperalgesia) [1] | long lasting analgesic activity (dairy cows)
1 | CO/N=C(\C(=O)N[C@@H]1C(=O)N2C(C(=O)[O-])=C(C[n+]3cccc4c3CCCC4)CS[C@H]12)c1csc(N)n1 [antibiotics, cefquinome] | greater differences | 
2 | Cc1c(Nc2ncccc2C(=O)O)cccc1C(F)(F)F [flunixin meglumine] |  | did not achieve a long lasting analgesic activity
